Assay results published in ChEMBL document CHEMBL1201861, “Genomics of Drug Sensitity in Cancer screening data, Wellcome Trust Sanger Institute”.
pIC50: −log10 of the molar value.

How the values were obtained:
Assay in all cases: cells
LNCaP-Clone-FGC = type: functional, cell-based, Homo sapiens; conditions: Homo sapiens, LNCaP-Clone-FGC
Description: SANGER: Inhibition of human LNCaP-Clone-FGC cell growth in a cell viability assay.

SK-UT-1 = type: functional, cell-based, Homo sapiens; conditions: Homo sapiens, SK-UT-1;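 note: growth inhibition of SK-UT-1 cells, measured by a cell viability assay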
Description: SANGER: Inhibition of human SK-UT-1 cell growth in a cell viability assay.

SW 954 = type: functional, cell-based, Homo sapiens; conditions: Homo sapiens, SW 954;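 note: growth inhibition of SW954 human cancer cells, read out as cell viability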
Description: SANGER: Inhibition of human SW954 cell growth in a cell viability assay.

SCH = type: functional, cell-based, Homo sapiens; conditions: Homo sapiens, SCH;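 note: growth inhibition of human SCH cells, read out in a cell viability assay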
Description: SANGER: Inhibition of human SCH cell growth in a cell viability assay.

MC116 = type: functional, cell-based, Homo sapiens; conditions: Homo sapiens, MC116;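 note: growth inhibition of MC116 cells, read out with a cell viability assay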
Description: SANGER: Inhibition of human MC116 cell growth in a cell viability assay.

NCI-H226 = type: functional, cell-based, Homo sapiens; conditions: Homo sapiens, NCI-H226;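 note: cell viability read-out used to gauge growth inhibition of the cells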
Description: SANGER: Inhibition of human NCI-H226 cell growth in a cell viability assay.

DU-4475 = type: functional, cell-based, Homo sapiens; conditions: Homo sapiens, DU-4475
Description: SANGER: Inhibition of human DU-4475 cell growth in a cell viability assay.

A4-Fuk = type: functional, cell-based, Homo sapiens; conditions: Homo sapiens, A4-Fuk;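 note: growth inhibition of A4-Fuk cells, read out by a cell viability assay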
Description: SANGER: Inhibition of human A4-Fuk cell growth in a cell viability assay.

EW-16 = type: functional, cell-based, Homo sapiens; conditions: Homo sapiens, EW-16;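 note: growth inhibition of human EW-16 cells, read out as cell viability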
Description: SANGER: Inhibition of human EW-16 cell growth in a cell viability assay.

LB771-HNC = type: functional, cell-based; conditions: Homo sapiens;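 note: growth inhibition of LB771-HNC human cells, read out with a cell viability assay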
A253 cell line = type: functional, cell-based, Homo sapiens; conditions: Homo sapiens, A253;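 note: growth inhibition of A253 cells, read out with a cell viability assay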
Description: SANGER: Inhibition of human A253 cell growth in a cell viability assay.

LS-411N = type: functional, cell-based, Homo sapiens; conditions: Homo sapiens, LS-411N
NCI-H1155 = type: functional, cell-based, Homo sapiens; conditions: Homo sapiens, NCI-H1155;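 note: cell growth inhibition measured by a viability assay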
Description: SANGER: Inhibition of human NCI-H1155 cell growth in a cell viability assay.

KURAMOCHI = type: functional, cell-based, Homo sapiens; conditions: Homo sapiens, KURAMOCHI;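 note: growth inhibition of KURAMOCHI cells, read out with a cell viability assay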
Description: SANGER: Inhibition of human KURAMOCHI cell growth in a cell viability assay.

KU812 cell line = type: functional, cell-based, Homo sapiens; conditions: Homo sapiens, KU812;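 note: growth inhibition of KU812 cells, read out with a cell viability assay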
Description: SANGER: Inhibition of human KU812 cell growth in a cell viability assay.

HL-60 = type: functional, cell-based, Homo sapiens; conditions: Homo sapiens, HL-60;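 note: growth inhibition of human HL-60 cells, read out with a cell viability assay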
Description: SANGER: Inhibition of human HL-60 cell growth in a cell viability assay.

EKVX = type: functional, cell-based, Homo sapiens; conditions: Homo sapiens, EKVX;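 note: growth inhibition of human EKVX cells, read out with a cell viability assay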
Description: SANGER: Inhibition of human EKVX cell growth in a cell viability assay.

KARPAS-45 = type: functional, cell-based, Homo sapiens; conditions: Homo sapiens, KARPAS-45;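 note: inhibition of cell line growth, read out through a viability assay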
Description: SANGER: Inhibition of human KARPAS-45 cell growth in a cell viability assay.

DOHH-2 = type: functional, cell-based, Homo sapiens; conditions: Homo sapiens, DOHH-2;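 note: growth inhibition of human DOHH-2 cells, read out with a cell viability assay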
Description: SANGER: Inhibition of human DOHH-2 cell growth in a cell viability assay.

JVM-2 = type: functional, cell-based, Homo sapiens; conditions: Homo sapiens, JVM-2;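 note: growth inhibition of JVM-2 cells determined by a cell viability assay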
Description: SANGER: Inhibition of human JVM-2 cell growth in a cell viability assay.

LB1047-RCC = type: functional, cell-based, Homo sapiens; conditions: Homo sapiens, LB1047-RCC;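 note: inhibition of cell growth, determined with a cell viability assay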
Description: SANGER: Inhibition of human LB1047-RCC cell growth in a cell viability assay.

P30-OHK = type: functional, cell-based, Homo sapiens; conditions: Homo sapiens, P30-OHK;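 note: growth inhibition of the P30-OHK cell line, read out with a cell viability assay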
Description: SANGER: Inhibition of human P30-OHK cell growth in a cell viability assay.

J-RT3-T3-5 = type: functional, cell-based, Homo sapiens; conditions: Homo sapiens, J-RT3-T3-5;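 note: cell viability assay measuring growth inhibition of human J-RT3-T3-5 cells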
SK-PN-DW = type: functional, cell-based, Homo sapiens; conditions: Homo sapiens, SK-PN-DW;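 note: growth inhibition measured with a viability assay on these cells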
Description: SANGER: Inhibition of human SK-PN-DW cell growth in a cell viability assay.

HT = type: functional, cell-based, Homo sapiens; conditions: Homo sapiens, HT
CAS-1 = type: functional, cell-based, Homo sapiens; conditions: Homo sapiens, CAS-1;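 note: growth inhibition of CAS-1 cells, measured with a cell viability assay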
LAMA-84 = type: functional, cell-based, Homo sapiens; conditions: Homo sapiens, LAMA-84;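 note: growth inhibition of LAMA-84 cells, read out with a cell viability assay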
LU-134-A = type: functional, cell-based, Homo sapiens; conditions: Homo sapiens, LU-134-A
Description: SANGER: Inhibition of human LU-134-A cell growth in a cell viability assay.

ES3 = type: functional, cell-based, Homo sapiens; conditions: Homo sapiens, ES3;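 note: growth inhibition of ES3 cells, read out with a cell viability assay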
Description: SANGER: Inhibition of human ES3 cell growth in a cell viability assay.

CTV-1 = type: functional, cell-based, Homo sapiens; conditions: Homo sapiens, CTV-1;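 note: growth inhibition of the cell line, read out with a cell viability assay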
Description: SANGER: Inhibition of human CTV-1 cell growth in a cell viability assay.

ACN = type: functional, cell-based, Homo sapiens; conditions: Homo sapiens, ACN;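 note: growth inhibition of the human ACN cell line, read out via cell viability testing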
Description: SANGER: Inhibition of human ACN cell growth in a cell viability assay.

UACC-257 = type: functional, cell-based, Homo sapiens; conditions: Homo sapiens, UACC-257
Description: SANGER: Inhibition of human UACC-257 cell growth in a cell viability assay.

TE-1 = type: functional, cell-based, Homo sapiens; conditions: Homo sapiens, TE-1
TE-12 = type: functional, cell-based, Homo sapiens; conditions: Homo sapiens, TE-12;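 note: growth inhibition of TE-12 cells, read out by a cell viability assay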
Description: SANGER: Inhibition of human TE-12 cell growth in a cell viability assay.

NKM-1 = type: functional, cell-based, Homo sapiens; conditions: Homo sapiens, NKM-1;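 note: growth inhibition of NKM-1 cells, read out with a cell viability assay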
Description: SANGER: Inhibition of human NKM-1 cell growth in a cell viability assay.

LC-2-ad = type: functional, cell-based, Homo sapiens; conditions: Homo sapiens, LC-2-ad;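 note: growth inhibition of human LC-2-ad cells, read out with a cell viability assay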
Description: SANGER: Inhibition of human LC-2-ad cell growth in a cell viability assay.

NB10 = type: functional, cell-based, Homo sapiens; conditions: Homo sapiens, NB10;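 note: growth inhibition of NB10 cells, read out by a cell viability assay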
Description: SANGER: Inhibition of human NB10 cell growth in a cell viability assay.

HDLM-2 = type: functional, cell-based, Homo sapiens; conditions: Homo sapiens, HDLM-2;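 note: cell viability assay measuring suppression of HDLM-2 proliferation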
Description: SANGER: Inhibition of human HDLM-2 cell growth in a cell viability assay.

ES4 = type: functional, cell-based, Homo sapiens; conditions: Homo sapiens, ES4;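 note: growth inhibition of human ES4 cells, read out by a cell viability assay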
KY821 = type: functional, cell-based, Homo sapiens; conditions: Homo sapiens, KY821;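 note: growth inhibition of human KY821 cells, read out by a cell viability assay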
Description: SANGER: Inhibition of human KY821 cell growth in a cell viability assay.

LAN-6 = type: functional, cell-based, Homo sapiens; conditions: Homo sapiens, LAN-6;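 note: growth inhibition of LAN-6 cells, determined with a cell viability assay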
Description: SANGER: Inhibition of human LAN-6 cell growth in a cell viability assay.

HCC2157 = type: functional, cell-based, Homo sapiens; conditions: Homo sapiens, HCC2157;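 note: growth inhibition of the cancer cell line, read out as cell viability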
Description: SANGER: Inhibition of human HCC2157 cell growth in a cell viability assay.

GI-1 = type: functional, cell-based, Homo sapiens; conditions: Homo sapiens, GI-1;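 note: growth inhibition of human GI-1 cells, measured with a cell viability readout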
Description: SANGER: Inhibition of human GI-1 cell growth in a cell viability assay.

RXF 393 = type: functional, cell-based, Homo sapiens; conditions: Homo sapiens, RXF 393;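 note: growth inhibition of human RXF 393 cells, read out with a cell viability assay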
Description: SANGER: Inhibition of human RXF393 cell growth in a cell viability assay.

TGBC24TKB = type: functional, cell-based; conditions: Homo sapiens;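 note: growth inhibition of human TGBC24TKB cells, read out with a cell viability assay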
Description: SANGER: Inhibition of human TGBC24TKB cell growth in a cell viability assay.

TE-11 = type: functional, cell-based; conditions: Homo sapiens;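 note: growth inhibition of human TE-11 cells, read out by a cell viability assay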
Description: SANGER: Inhibition of human TE-11 cell growth in a cell viability assay.

A498 = type: functional, cell-based, Homo sapiens; conditions: Homo sapiens, A498;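 note: growth inhibition of human A498 cells, read out with a cell viability assay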
Description: SANGER: Inhibition of human A498 cell growth in a cell viability assay.

Nc1ccccc1NC(=O)c1ccc(CNC(=O)OCc2cccnc2)cc1 [ENTINOSTAT]
pIC50 (LNCaP-Clone-FGC): < 5.30 | pIC50 (SK-UT-1): 5.75 | pIC50 (SW 954): 6.12 | pIC50 (SCH): 6.39 | pIC50 (MC116): 5.84 | pIC50 (NCI-H226): < 5.30 | pIC50 (DU-4475): 6.23 | pIC50 (A4-Fuk): 5.94 | pIC50 (EW-16): 5.72 | pIC50 (LB771-HNC): < 5.30 | pIC50 (A253 cell line): < 5.30 | pIC50 (LS-411N): 5.88 | pIC50 (NCI-H1155): 5.43 | pIC50 (KURAMOCHI): 5.75 | pIC50 (KU812 cell line): 5.77 | pIC50 (HL-60): 6.27 | pIC50 (EKVX): < 5.30 | pIC50 (KARPAS-45): 6.56 | pIC50 (DOHH-2): < 5.30 | pIC50 (JVM-2): < 5.30 | pIC50 (LB1047-RCC): 5.79 | pIC50 (P30-OHK): < 5.30 | pIC50 (J-RT3-T3-5): 6.47 | pIC50 (SK-PN-DW): 6.01 | pIC50 (HT): 5.68 | pIC50 (CAS-1): < 5.30 | pIC50 (LAMA-84): 6.11 | pIC50 (LU-134-A): 6.24 | pIC50 (ES3): < 5.30 | pIC50 (CTV-1): 5.89 | pIC50 (ACN): 6.29 | pIC50 (UACC-257): 5.46 | pIC50 (TE-1): 6.26 | pIC50 (TE-12): 5.45 | pIC50 (NKM-1): 6.96 | pIC50 (LC-2-ad): 6.27 | pIC50 (NB10): 5.62 | pIC50 (HDLM-2): 5.77 | pIC50 (ES4): 6.07 | pIC50 (KY821): < 5.30 | pIC50 (LAN-6): 5.69 | pIC50 (HCC2157): 5.85 | pIC50 (GI-1): 5.53 | pIC50 (RXF 393): < 5.30

Cc1ccc(NC(=O)c2ccc(CN3CCN(C)CC3)cc2)cc1Nc1nccc(-c2cccnc2)n1 [IMATINIB]
pIC50 (SK-UT-1): < 5.70 | pIC50 (SW 954): < 5.70 | pIC50 (MC116): < 5.70 | pIC50 (NCI-H226): < 5.70 | pIC50 (DU-4475): < 5.70 | pIC50 (A4-Fuk): < 5.70 | pIC50 (EW-16): < 5.70 | pIC50 (LB771-HNC): < 5.70 | pIC50 (A253 cell line): < 5.70 | pIC50 (LS-411N): < 5.70 | pIC50 (NCI-H1155): < 5.70 | pIC50 (KU812 cell line): < 5.70 | pIC50 (HL-60): < 5.70 | pIC50 (EKVX): < 5.70 | pIC50 (KARPAS-45): < 5.70 | pIC50 (DOHH-2): < 5.70 | pIC50 (TGBC24TKB): < 5.70 | pIC50 (JVM-2): < 5.70 | pIC50 (LB1047-RCC): < 5.70 | pIC50 (P30-OHK): < 5.70 | pIC50 (J-RT3-T3-5): < 5.70 | pIC50 (SK-PN-DW): < 5.70 | pIC50 (HT): < 5.70 | pIC50 (CAS-1): < 5.70 | pIC50 (LAMA-84): 7.14 | pIC50 (LU-134-A): < 5.70 | pIC50 (ES3): < 5.70 | pIC50 (CTV-1): < 5.70 | pIC50 (ACN): < 5.70 | pIC50 (TE-1): < 5.70 | pIC50 (TE-12): < 5.70 | pIC50 (NKM-1): < 5.70 | pIC50 (LC-2-ad): < 5.70 | pIC50 (NB10): < 5.70 | pIC50 (HDLM-2): < 5.70 | pIC50 (ES4): < 5.70 | pIC50 (KY821): < 5.70 | pIC50 (LAN-6): < 5.70 | pIC50 (HCC2157): < 5.70 | pIC50 (GI-1): < 5.70 | pIC50 (TE-11): < 5.70 | pIC50 (RXF 393): < 5.70 | pIC50 (A498): < 5.70

COc1cc(N2CCC(N3CCN(C)CC3)CC2)ccc1Nc1ncc(Cl)c(Nc2ccccc2S(=O)(=O)C(C)C)n1 [TAE-684]
pIC50 (LNCaP-Clone-FGC): < 5.70 | pIC50 (SK-UT-1): < 5.70 | pIC50 (SW 954): 5.92 | pIC50 (MC116): < 5.70 | pIC50 (NCI-H226): < 5.70 | pIC50 (DU-4475): 5.84 | pIC50 (A4-Fuk): 7.25 | pIC50 (EW-16): 6.98 | pIC50 (LB771-HNC): 6.05 | pIC50 (A253 cell line): < 5.70 | pIC50 (LS-411N): 6.17 | pIC50 (NCI-H1155): < 5.70 | pIC50 (KURAMOCHI): 5.77 | pIC50 (KU812 cell line): < 5.70 | pIC50 (HL-60): 6.32 | pIC50 (EKVX): < 5.70 | pIC50 (KARPAS-45): 6.07 | pIC50 (DOHH-2): 6.51 | pIC50 (TGBC24TKB): 6.52 | pIC50 (JVM-2): < 5.70 | pIC50 (LB1047-RCC): 6.26 | pIC50 (P30-OHK): < 5.70 | pIC50 (J-RT3-T3-5): < 5.70 | pIC50 (SK-PN-DW): 5.90 | pIC50 (HT): < 5.70 | pIC50 (CAS-1): 5.70 | pIC50 (LAMA-84): < 5.70 | pIC50 (LU-134-A): 6.08 | pIC50 (ES3): < 5.70 | pIC50 (CTV-1): 6.25 | pIC50 (ACN): < 5.70 | pIC50 (UACC-257): < 5.70 | pIC50 (TE-1): 6.16 | pIC50 (TE-12): 6.27 | pIC50 (NKM-1): 5.77 | pIC50 (LC-2-ad): 6.71 | pIC50 (NB10): 5.80 | pIC50 (HDLM-2): < 5.70 | pIC50 (ES4): 6.31 | pIC50 (KY821): < 5.70 | pIC50 (LAN-6): 6.76 | pIC50 (HCC2157): 5.83 | pIC50 (GI-1): 5.96 | pIC50 (TE-11): 6.79 | pIC50 (RXF 393): 6.25 | pIC50 (A498): < 5.70
